Columns and labels:
[1] = 298.15 K, Ring tensiometer
[2] = xn = mol fraction of the nth substance listed; conditions: 298.15 K, Ring tensiometer

OCCO [1,2-ethanediol]
Conditions | surface tension liquid-gas [mN/m]
[1] | 47.8

OCCO [1,2-ethanediol] + O
[2]
Conditions | surface tension liquid-gas [mN/m]
x1 = 0.008251 | 70.8
x1 = 0.01012 | 70.7
x1 = 0.01185 | 70.4
x1 = 0.01423 | 70.2
x1 = 0.01585 | 69.7
x1 = 0.01823 | 69.6
x1 = 0.02 | 69.4
x1 = 0.02198 | 69.2
x1 = 0.02488 | 68.8
x1 = 0.02992 | 68.2
x1 = 0.03542 | 67.7
x1 = 0.0401 | 67.3
x1 = 0.04519 | 66.6
x1 = 0.101 | 62.5
x1 = 0.2 | 57.9

CC(=O)CC(C)=O [2,4-pentanedione]
Conditions | surface tension liquid-gas [mN/m]
[1] | 30.9

CC(=O)CC(C)=O [2,4-pentanedione] + O
[2]
Conditions | surface tension liquid-gas [mN/m]
x1 = 0.000205 | 70.7
x1 = 0.000412 | 70.1
x1 = 0.00049 | 69.9
x1 = 0.000578 | 69.5
x1 = 0.000783 | 69.1
x1 = 0.001016 | 68.3
x1 = 0.001976 | 65.5
x1 = 0.004045 | 61.4
x1 = 0.004973 | 59.8
x1 = 0.006054 | 58.3
x1 = 0.008089 | 55.6
x1 = 0.0103 | 53.3

CCOCCOC(C)=O [2-ethoxyethyl ethanoate]
Conditions | surface tension liquid-gas [mN/m]
[1] | 28.7

CCOCCOC(C)=O [2-ethoxyethyl ethanoate] + O
[2]
Conditions | surface tension liquid-gas [mN/m]
x1 = 0.000101 | 70
x1 = 0.000178 | 68.9
x1 = 0.00019 | 68.4
x1 = 0.000221 | 67.9
x1 = 0.000407 | 66
x1 = 0.00046 | 65.6
x1 = 0.000582 | 64.5
x1 = 0.000777 | 63.5
x1 = 0.000958 | 62.4
x1 = 0.001352 | 60.3
x1 = 0.003046 | 55.2
x1 = 0.005086 | 51.2
x1 = 0.007004 | 48.6
x1 = 0.01091 | 44.7
x1 = 0.013 | 43.2
x1 = 0.01497 | 41.4

CCCCO [butan-1-ol]
Conditions | surface tension liquid-gas [mN/m]
[1] | 24.3

CCCCO [butan-1-ol] + O
[2]
Conditions | surface tension liquid-gas [mN/m]
x1 = 0.000138 | 69.4
x1 = 0.000235 | 68.8
x1 = 0.000292 | 68.1
x1 = 0.000392 | 66.9
x1 = 0.000596 | 64.4
x1 = 0.000778 | 62.5
x1 = 0.001004 | 60.4
x1 = 0.001457 | 56.5
x1 = 0.001997 | 53.9
x1 = 0.002872 | 49.2
x1 = 0.003931 | 45.8
x1 = 0.006003 | 40.7
x1 = 0.006847 | 38.3
x1 = 0.008156 | 36.4
x1 = 0.01013 | 33.7
x1 = 0.01204 | 31.1
x1 = 0.01288 | 29.9
x1 = 0.01411 | 29.1

CCC(C)O (stereo unspecified) [butan-2-ol]
Conditions | surface tension liquid-gas [mN/m]
[1] | 23.3

CCC(C)O (stereo unspecified) [butan-2-ol] + O
[2]
Conditions | surface tension liquid-gas [mN/m]
x1 = 0.000154 | 70.2
x1 = 0.000211 | 69.7
x1 = 0.000443 | 67.3
x1 = 0.000718 | 64.8
x1 = 0.001 | 62.6
x1 = 0.001994 | 57.5
x1 = 0.003914 | 50.9
x1 = 0.005882 | 46.4
x1 = 0.00799 | 43.1
x1 = 0.009938 | 40.6
x1 = 0.01199 | 38.5
x1 = 0.01394 | 36.8

CCC(C)=O [butanone]
Conditions | surface tension liquid-gas [mN/m]
[1] | 24.2

CCC(C)=O [butanone] + O
[2]
Conditions | surface tension liquid-gas [mN/m]
x1 = 5.71e-05 | 71.8
x1 = 7.54e-05 | 71.7
x1 = 8.96e-05 | 71.5
x1 = 0.000112 | 71.3
x1 = 0.000296 | 70
x1 = 0.000522 | 68.9
x1 = 0.000741 | 67.8
x1 = 0.000855 | 67.3
x1 = 0.000997 | 66.8
x1 = 0.002056 | 63.1
x1 = 0.00405 | 58.6
x1 = 0.006112 | 55.1
x1 = 0.008019 | 52.7
x1 = 0.01022 | 50.4
x1 = 0.01205 | 48.8
x1 = 0.01413 | 47.4

OC1CCCC1 [cyclopentanol]
Conditions | surface tension liquid-gas [mN/m]
[1] | 32.8

OC1CCCC1 [cyclopentanol] + O
[2]
Conditions | surface tension liquid-gas [mN/m]
x1 = 0.000201 | 70.8
x1 = 0.000369 | 69.6
x1 = 0.000525 | 68.5
x1 = 0.000574 | 68
x1 = 0.000713 | 67.3
x1 = 0.000986 | 65.1
x1 = 0.001816 | 60.2
x1 = 0.002519 | 57.5
x1 = 0.002728 | 56.3
x1 = 0.003934 | 52.6
x1 = 0.005255 | 49.6
x1 = 0.005987 | 48.3
x1 = 0.008154 | 44.8
x1 = 0.01025 | 42.4
x1 = 0.01189 | 40.6
x1 = 0.01448 | 38.4

O=C1CCCC1 [cyclopentanone]
Conditions | surface tension liquid-gas [mN/m]
[1] | 33

O=C1CCCC1 [cyclopentanone] + O
[2]
Conditions | surface tension liquid-gas [mN/m]
x1 = 0.000186 | 71.1
x1 = 0.000367 | 70.3
x1 = 0.000559 | 69.6
x1 = 0.000768 | 68.9
x1 = 0.000966 | 68.3
x1 = 0.001362 | 67
x1 = 0.002445 | 63.6
x1 = 0.003863 | 61.1
x1 = 0.006022 | 57.8
x1 = 0.007908 | 55.5
x1 = 0.009964 | 53.7
x1 = 0.01215 | 52
x1 = 0.01428 | 50.3

CCOC(C)=O [ethyl acetate]
Conditions | surface tension liquid-gas [mN/m]
[1] | 23.7

CCOC(C)=O [ethyl acetate] + O
[2]
Conditions | surface tension liquid-gas [mN/m]
x1 = 0.000189 | 69.6
x1 = 0.000351 | 67.7
x1 = 0.000617 | 65.2
x1 = 0.000819 | 63.7
x1 = 0.000997 | 62.3
x1 = 0.002074 | 57.3
x1 = 0.003938 | 51.2
x1 = 0.006035 | 46.7
x1 = 0.008035 | 43.4
x1 = 0.009946 | 40.5
x1 = 0.01195 | 37.8
x1 = 0.01401 | 35.2

COC(=O)CC(C)=O [methyl 3-oxobutanoate]
Conditions | surface tension liquid-gas [mN/m]
[1] | 35.7

COC(=O)CC(C)=O [methyl 3-oxobutanoate] + O
[2]
Conditions | surface tension liquid-gas [mN/m]
x1 = 0.000186 | 71.1
x1 = 0.000411 | 70.4
x1 = 0.000609 | 69.9
x1 = 0.000793 | 69.3
x1 = 0.001003 | 68.6
x1 = 0.001822 | 66.6
x1 = 0.003971 | 62.4
x1 = 0.005842 | 60.2
x1 = 0.008086 | 57.8
x1 = 0.00996 | 56.1
x1 = 0.01206 | 54.5
x1 = 0.01404 | 53.2

CCC#N [propanenitrile]
Conditions | surface tension liquid-gas [mN/m]
[1] | 26.9

CCC#N [propanenitrile] + O
[2]
Conditions | surface tension liquid-gas [mN/m]
x1 = 0.000183 | 71.6
x1 = 0.000368 | 71
x1 = 0.000563 | 70.3
x1 = 0.000784 | 69.5
x1 = 0.000963 | 69.2
x1 = 0.001988 | 66.6
x1 = 0.003895 | 62.9
x1 = 0.005968 | 59.5
x1 = 0.008178 | 56.6
x1 = 0.01015 | 54.2
x1 = 0.012 | 52.4
x1 = 0.01434 | 49.9

O [water]
Conditions | surface tension liquid-gas [mN/m]
[1] | 71.95

From the NIST ThermoML archive (doi:10.1021/je049955d)
